Data on 10 compounds can be found in the OPERA property sets (Mansouri et al. 2018).

In general, logP refers to the decadic logarithm of the partition coefficient of the neutral form, usually between octanol and water. High values mean higher lipophilicity, low ones lower lipophilicity. With `c1cc2ccc3cccc4sc(c1)c2c34`, the logP was determined as 4.95. `c1ccc2c(c1)ccc1sccc12`: the logP came out at 4.41. Take `c1ccc2c(c1)ccc1c3ccsc3ccc21`: the logP came to 5.35. Compound `Cc1cccc2ccsc12` yielded a logP of 3.85. The same measure for `O=S1C=Cc2ccccc21` (stereo not given): 1.01; for `c1ccc2c(c1)ccc1sc3ccccc3c12`: 5.19. Under `c1ccc2cc3sccc3cc2c1` stands 4.5. Compound `Cc1cc2ccccc2s1` came in with a log partition coefficient (logP) of 3.71. The compound `Cc1cccc2sccc12` gave a logP of 3.57. `c1ccc2c(c1)ccc1ccsc12` displayed a logP of 4.55.
